In the kinase profiling compilation of Christmann-Franck et al. (2016):

Legend:
Test in all cases: radiometric filter-binding kinase assay
CHEK2 (human) = CHEK2 (human) (UniProt O96017); conditions: compound 100.0 µM; ATP 20 µM
DYRK2 (human) = DYRK2 (human) (UniProt Q92630); conditions: compound 100.0 µM; ATP 50 µM
PRKCG (human) = PRKCG (human) (UniProt P05129); conditions: compound 100.0 µM; ATP 20 µM
PAK4 (human) = PAK4 (human) (UniProt O96013); conditions: compound 100.0 µM; ATP 5 µM
YES1 (human) = YES1 (human) (UniProt P07947); conditions: compound 100.0 µM; ATP 20 µM
MAP2K1 (human) = MAP2K1 (human) (UniProt Q02750); conditions: compound 100.0 µM; ATP 5 µM
MAP2K1 (human), sequence (Q02750 whole entry, looked up): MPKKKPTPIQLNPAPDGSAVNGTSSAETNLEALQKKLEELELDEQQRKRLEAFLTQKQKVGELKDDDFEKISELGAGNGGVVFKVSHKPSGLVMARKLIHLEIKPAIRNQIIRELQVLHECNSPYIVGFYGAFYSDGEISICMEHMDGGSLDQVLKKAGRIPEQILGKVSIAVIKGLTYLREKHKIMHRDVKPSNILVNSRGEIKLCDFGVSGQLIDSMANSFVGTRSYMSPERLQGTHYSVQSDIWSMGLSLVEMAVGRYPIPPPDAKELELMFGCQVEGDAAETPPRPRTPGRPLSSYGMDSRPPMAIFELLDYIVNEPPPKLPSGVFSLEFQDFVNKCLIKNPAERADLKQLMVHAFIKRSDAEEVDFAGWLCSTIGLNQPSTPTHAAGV

RIPK2 (human) = RIPK2 (human) (UniProt O43353); conditions: compound 100.0 µM; ATP 20 µM
RIPK2 (human), sequence (O43353 whole entry, looked up): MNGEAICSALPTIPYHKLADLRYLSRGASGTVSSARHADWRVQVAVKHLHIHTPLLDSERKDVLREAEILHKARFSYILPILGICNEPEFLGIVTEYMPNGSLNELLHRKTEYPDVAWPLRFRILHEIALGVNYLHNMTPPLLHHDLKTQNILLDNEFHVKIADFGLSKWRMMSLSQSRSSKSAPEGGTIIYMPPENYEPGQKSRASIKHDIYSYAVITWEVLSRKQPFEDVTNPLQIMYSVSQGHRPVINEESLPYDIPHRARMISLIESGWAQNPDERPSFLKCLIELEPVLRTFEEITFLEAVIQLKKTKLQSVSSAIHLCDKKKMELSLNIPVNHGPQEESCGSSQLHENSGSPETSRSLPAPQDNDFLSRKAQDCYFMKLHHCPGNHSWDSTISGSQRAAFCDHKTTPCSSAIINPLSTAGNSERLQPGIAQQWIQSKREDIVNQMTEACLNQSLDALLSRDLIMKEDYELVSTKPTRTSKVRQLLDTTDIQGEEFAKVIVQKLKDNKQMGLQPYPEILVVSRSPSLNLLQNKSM

STK3 (human) = STK3 (human) (UniProt Q13188); conditions: compound 100.0 µM; ATP 20 µM
MKNK1 (human) = MKNK1 (human) (UniProt Q9BUB5); conditions: compound 100.0 µM; ATP 50 µM
EPHB3 (human) = EPHB3 (human) (UniProt P54753); conditions: compound 100.0 µM; ATP 20 µM
[1] = target: STK11 CAB39 STRADA (human) (UniProt Q9Y376+Q7RTN6+Q15831); conditions: compound 100.0 µM; ATP 20 µM
GCK (human) = GCK (human) (UniProt Q12851); conditions: compound 100.0 µM; ATP 20 µM
CAMKK2 (human) = CAMKK2 (human) (UniProt Q96RR4); conditions: compound 100.0 µM; ATP 20 µM
PDPK1 (human) = PDPK1 (human) (UniProt O15530); conditions: compound 100.0 µM
PDPK1 (human), sequence (O15530 whole entry, looked up): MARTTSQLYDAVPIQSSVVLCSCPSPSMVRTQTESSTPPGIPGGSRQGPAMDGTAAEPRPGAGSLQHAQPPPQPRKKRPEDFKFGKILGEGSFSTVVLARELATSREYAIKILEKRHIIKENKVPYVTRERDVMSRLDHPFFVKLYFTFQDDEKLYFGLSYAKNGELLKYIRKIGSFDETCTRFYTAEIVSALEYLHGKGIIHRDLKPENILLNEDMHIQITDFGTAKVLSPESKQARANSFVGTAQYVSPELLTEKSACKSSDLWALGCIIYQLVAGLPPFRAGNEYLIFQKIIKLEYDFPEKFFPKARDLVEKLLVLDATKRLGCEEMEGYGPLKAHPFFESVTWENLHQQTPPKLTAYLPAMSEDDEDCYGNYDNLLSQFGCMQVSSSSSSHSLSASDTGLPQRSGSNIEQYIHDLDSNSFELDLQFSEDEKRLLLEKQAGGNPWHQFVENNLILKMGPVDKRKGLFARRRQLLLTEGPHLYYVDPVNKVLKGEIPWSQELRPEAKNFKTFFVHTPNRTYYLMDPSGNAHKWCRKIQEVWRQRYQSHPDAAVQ

MARK4 (human) = MARK4 (human) (UniProt Q96L34); conditions: compound 100.0 µM; ATP 50 µM
[2] = test system: SGK1 (human), O00141 [S422D]; conditions: compound 100.0 µM; ATP 20 µM
SGK1 (human), O00141 [S422D], sequence (O00141 whole entry S422D, looked up): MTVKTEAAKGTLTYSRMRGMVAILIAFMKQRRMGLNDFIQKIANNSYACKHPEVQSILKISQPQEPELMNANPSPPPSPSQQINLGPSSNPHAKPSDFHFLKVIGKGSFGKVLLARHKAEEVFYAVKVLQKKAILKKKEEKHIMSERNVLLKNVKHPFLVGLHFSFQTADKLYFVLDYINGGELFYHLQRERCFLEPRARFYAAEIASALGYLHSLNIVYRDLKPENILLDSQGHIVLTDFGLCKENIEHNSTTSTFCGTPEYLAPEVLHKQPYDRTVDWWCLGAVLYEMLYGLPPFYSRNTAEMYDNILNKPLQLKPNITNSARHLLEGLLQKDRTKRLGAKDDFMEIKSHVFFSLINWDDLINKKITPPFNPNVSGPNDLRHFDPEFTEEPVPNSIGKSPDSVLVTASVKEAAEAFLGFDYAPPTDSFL

AURKB (human) = AURKB (human) (UniProt Q96GD4); conditions: compound 100.0 µM; ATP 20 µM
SRPK1 (human) = SRPK1 (human) (UniProt Q96SB4); conditions: compound 100.0 µM; ATP 50 µM
HIPK1 (human) = HIPK1 (human) (UniProt Q86Z02); conditions: compound 100.0 µM; ATP 20 µM
MAP2K2 (human) = MAP2K2 (human) (UniProt P36507); conditions: compound 100.0 µM; ATP 5 µM
MAP2K2 (human), sequence (P36507 whole entry, looked up): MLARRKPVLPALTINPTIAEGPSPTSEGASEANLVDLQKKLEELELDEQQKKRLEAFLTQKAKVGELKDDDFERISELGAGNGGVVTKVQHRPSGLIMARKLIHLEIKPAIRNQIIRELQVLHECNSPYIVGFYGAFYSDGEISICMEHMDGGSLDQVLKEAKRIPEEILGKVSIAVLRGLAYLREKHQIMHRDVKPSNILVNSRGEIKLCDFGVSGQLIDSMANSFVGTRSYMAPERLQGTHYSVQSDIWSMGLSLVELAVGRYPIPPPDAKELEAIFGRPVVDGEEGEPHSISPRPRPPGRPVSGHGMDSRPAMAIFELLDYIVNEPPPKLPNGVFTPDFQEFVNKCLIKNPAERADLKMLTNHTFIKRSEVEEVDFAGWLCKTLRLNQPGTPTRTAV

CLK2 (human) = CLK2 (human) (UniProt P49760); conditions: compound 100.0 µM; ATP 5 µM
JAK2 JH1 JH2 (human) = JAK2 JH1 JH2 (human) (UniProt O60674); conditions: compound 100.0 µM; ATP 5 µM
GSK3B (human) = GSK3B (human) (UniProt P49841); conditions: compound 100.0 µM; ATP 5 µM
IRAK4 (human) = IRAK4 (human) (UniProt Q9NWZ3); conditions: compound 100.0 µM; ATP 20 µM
CSK (human) = CSK (human) (UniProt P41240); conditions: compound 100.0 µM; ATP 20 µM
MAPK14 (human) = MAPK14 (human) (UniProt Q16539); conditions: compound 100.0 µM; ATP 50 µM
[3] = test system: PAK2 (human), Q13177 [T402E]; conditions: compound 100.0 µM; ATP 20 µM
MAPK12 (human) = MAPK12 (human) (UniProt P53778); conditions: compound 100.0 µM; ATP 5 µM
MAPKAPK5 (human) = MAPKAPK5 (human) (UniProt Q8IW41); conditions: compound 100.0 µM; ATP 20 µM
MAPKAPK5 (human), sequence (Q8IW41 whole entry, looked up): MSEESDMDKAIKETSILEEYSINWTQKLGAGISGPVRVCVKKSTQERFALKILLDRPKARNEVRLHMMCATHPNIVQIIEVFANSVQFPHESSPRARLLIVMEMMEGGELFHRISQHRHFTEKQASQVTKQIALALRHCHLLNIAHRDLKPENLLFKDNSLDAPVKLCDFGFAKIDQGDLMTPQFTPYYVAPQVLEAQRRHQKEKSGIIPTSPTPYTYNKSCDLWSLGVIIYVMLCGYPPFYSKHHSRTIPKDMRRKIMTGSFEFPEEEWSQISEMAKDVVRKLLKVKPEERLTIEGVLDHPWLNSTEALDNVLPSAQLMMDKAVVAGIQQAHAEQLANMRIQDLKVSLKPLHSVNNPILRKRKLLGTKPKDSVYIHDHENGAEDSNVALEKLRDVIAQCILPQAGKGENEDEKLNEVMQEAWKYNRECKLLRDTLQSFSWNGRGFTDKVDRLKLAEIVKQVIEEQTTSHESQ

PLK1 (human) = PLK1 (human) (UniProt P53350); conditions: compound 100.0 µM; ATP 5 µM
IGF1R (human) = IGF1R (human) (UniProt P08069); conditions: compound 100.0 µM; ATP 5 µM
TTK (human) = TTK (human) (UniProt P33981); conditions: compound 100.0 µM; ATP 20 µM
PAK7 (human) = PAK7 (human) (UniProt Q9P286); conditions: compound 100.0 µM; ATP 20 µM
CHEK1 (human) = CHEK1 (human) (UniProt O14757); conditions: compound 100.0 µM; ATP 20 µM
SRC (human) = SRC (human) (UniProt P12931); conditions: compound 100.0 µM; ATP 50 µM
SRC (human), sequence (P12931 whole entry, looked up): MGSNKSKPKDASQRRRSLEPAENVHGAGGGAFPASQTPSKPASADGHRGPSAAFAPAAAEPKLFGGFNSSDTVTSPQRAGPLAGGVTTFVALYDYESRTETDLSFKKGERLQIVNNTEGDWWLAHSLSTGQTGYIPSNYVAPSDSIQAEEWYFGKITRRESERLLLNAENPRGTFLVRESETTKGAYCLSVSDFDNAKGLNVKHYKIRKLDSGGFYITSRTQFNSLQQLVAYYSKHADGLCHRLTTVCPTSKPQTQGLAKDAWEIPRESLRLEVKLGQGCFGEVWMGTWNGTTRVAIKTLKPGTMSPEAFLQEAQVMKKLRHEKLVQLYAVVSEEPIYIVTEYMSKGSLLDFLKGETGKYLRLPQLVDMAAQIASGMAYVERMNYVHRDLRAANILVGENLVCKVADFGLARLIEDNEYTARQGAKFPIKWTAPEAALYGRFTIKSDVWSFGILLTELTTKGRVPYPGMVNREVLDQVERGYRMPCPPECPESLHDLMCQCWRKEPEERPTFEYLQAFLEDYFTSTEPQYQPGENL

[4] = target: PRKAA1 PRKAB2 PRKAG1 (human) (UniProt O43741+Q13131+P54619); conditions: compound 100.0 µM; ATP 20 µM
MAPK11 (human) = MAPK11 (human) (UniProt Q15759); conditions: compound 100.0 µM; ATP 20 µM
MAPK11 (human), sequence (Q15759 whole entry, looked up): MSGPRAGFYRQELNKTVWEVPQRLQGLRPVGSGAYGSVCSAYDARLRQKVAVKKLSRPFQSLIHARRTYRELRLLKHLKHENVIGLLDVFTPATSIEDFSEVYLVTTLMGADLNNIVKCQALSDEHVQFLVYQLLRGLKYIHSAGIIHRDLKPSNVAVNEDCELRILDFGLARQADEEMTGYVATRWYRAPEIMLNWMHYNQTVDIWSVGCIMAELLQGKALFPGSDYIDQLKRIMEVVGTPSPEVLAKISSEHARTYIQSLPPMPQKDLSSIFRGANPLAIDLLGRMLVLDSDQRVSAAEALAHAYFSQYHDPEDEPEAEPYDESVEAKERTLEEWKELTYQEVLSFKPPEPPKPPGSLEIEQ

IKBKB (human) = IKBKB (human) (UniProt O14920); conditions: compound 100.0 µM; ATP 5 µM
MAP3K7 TAB1 (human) = MAP3K7 TAB1 (human) (UniProt Q15750+O43318); conditions: compound 100.0 µM; ATP 5 µM

DYRK2 (human), sequence (Q92630 whole entry, looked up): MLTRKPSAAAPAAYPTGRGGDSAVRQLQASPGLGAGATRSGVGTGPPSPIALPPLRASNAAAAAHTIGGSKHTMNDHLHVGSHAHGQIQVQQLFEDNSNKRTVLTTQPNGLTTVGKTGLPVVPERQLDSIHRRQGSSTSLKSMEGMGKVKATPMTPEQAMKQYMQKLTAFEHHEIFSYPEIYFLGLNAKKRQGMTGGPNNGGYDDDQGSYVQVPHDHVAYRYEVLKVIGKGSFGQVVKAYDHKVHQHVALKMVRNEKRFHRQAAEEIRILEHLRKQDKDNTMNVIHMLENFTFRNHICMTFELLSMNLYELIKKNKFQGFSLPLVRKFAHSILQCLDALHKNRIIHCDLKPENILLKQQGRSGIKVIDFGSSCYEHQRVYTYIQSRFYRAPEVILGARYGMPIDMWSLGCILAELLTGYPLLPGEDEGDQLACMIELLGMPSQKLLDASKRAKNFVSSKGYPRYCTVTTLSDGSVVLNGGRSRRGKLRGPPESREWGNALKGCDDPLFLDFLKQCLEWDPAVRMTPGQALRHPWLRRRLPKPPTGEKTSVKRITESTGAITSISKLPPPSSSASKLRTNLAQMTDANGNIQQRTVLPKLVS

Compound | inhibition (CHEK2 (human)) [%] | inhibition (DYRK2 (human)) [%] | inhibition (PRKCG (human)) [%] | inhibition (PAK4 (human)) [%] | inhibition (YES1 (human)) [%] | inhibition (MAP2K1 (human)) [%] | inhibition (RIPK2 (human)) [%] | inhibition (STK3 (human)) [%] | inhibition (MKNK1 (human)) [%] | inhibition (EPHB3 (human)) [%] | inhibition [1] [%] | inhibition (GCK (human)) [%] | inhibition (CAMKK2 (human)) [%] | inhibition (PDPK1 (human); ATP 20 µM) [%] | inhibition (PDPK1 (human); ATP 50 µM) [%] | inhibition (MARK4 (human)) [%] | inhibition [2] [%] | inhibition (AURKB (human)) [%] | inhibition (SRPK1 (human)) [%] | inhibition (HIPK1 (human)) [%] | also measured
Nc1cnc2c(-c3c(F)cccc3F)cccn2c1=O | 25 | 20 | 25 | 50 | 57 | 72 | 3 | 64 | 1 | 42 | 62 | 95 | 0 | 20 | 57 | 62 | 0 | 81 | 58 | 11 | inhibition (MAP2K2 (human)): 71%; inhibition (CLK2 (human)): 91%; inhibition (JAK2 JH1 JH2 (human)): 89%; inhibition (GSK3B (human)): 51%; inhibition (IRAK4 (human)): 31%; inhibition (CSK (human)): 11%; inhibition (MAPK14 (human)): 0%; inhibition [3]: 41%; inhibition (MAPK12 (human)): 17%; inhibition (MAPKAPK5 (human)): 83%; inhibition (PLK1 (human)): 0%; inhibition (IGF1R (human)): 85%; inhibition (TTK (human)): 45%; inhibition (PAK7 (human)): 35%; inhibition (CHEK1 (human)): 0%; inhibition (SRC (human)): 35%; inhibition [4]: 40%; inhibition (MAPK11 (human)): 13%; inhibition (IKBKB (human)): 66%; inhibition (MAP3K7 TAB1 (human)): 80%
CC1CN(c2nc3ccccn3c(=O)c2N)CC(C)O1 (stereo not given) | 0 | 40 | 0 | 0 | 57 | 7 | 28 | 0 | 0 | 0 | 0 | 0 | 0 | 31 | 26 | 56 | 0 | 32 | 74 | 0 | inhibition (MAP2K2 (human)): 0%; inhibition (CLK2 (human)): 57%; inhibition (JAK2 JH1 JH2 (human)): 35%; inhibition (GSK3B (human)): 64%; inhibition (IRAK4 (human)): 3%; inhibition (CSK (human)): 0%; inhibition (MAPK14 (human)): 0%; inhibition [3]: 3%; inhibition (MAPK12 (human)): 1%; inhibition (MAPKAPK5 (human)): 75%; inhibition (PLK1 (human)): 0%; inhibition (IGF1R (human)): 0%; inhibition (TTK (human)): 3%; inhibition (PAK7 (human)): 0%; inhibition (CHEK1 (human)): 0%; inhibition (SRC (human)): 73%; inhibition [4]: 2%; inhibition (MAPK11 (human)): 0%; inhibition (IKBKB (human)): 22%; inhibition (MAP3K7 TAB1 (human)): 0%
O=C(Nc1cnc2[nH]cnn2c1=O)c1ccccc1 | 0 | 27 | 2 | 3 | 0 | 20 | 0 | 0 | 0 | 0 | 0 | 0 | 0 | 1 | 0 | 0 | 0 | 0 | 0 | 0 | inhibition (MAP2K2 (human)): 0%; inhibition (CLK2 (human)): 0%; inhibition (JAK2 JH1 JH2 (human)): 0%; inhibition (GSK3B (human)): 0%; inhibition (IRAK4 (human)): 0%; inhibition (CSK (human)): 8%; inhibition (MAPK14 (human)): 0%; inhibition [3]: 0%; inhibition (MAPK12 (human)): 0%; inhibition (MAPKAPK5 (human)): 0%; inhibition (PLK1 (human)): 0%; inhibition (IGF1R (human)): 0%; inhibition (TTK (human)): 0%; inhibition (PAK7 (human)): 0%; inhibition (CHEK1 (human)): 0%; inhibition (SRC (human)): 0%; inhibition [4]: 0%; inhibition (MAPK11 (human)): 2%; inhibition (IKBKB (human)): 0%; inhibition (MAP3K7 TAB1 (human)): 15%
